Values after ≈ are worked out from the molar mass of the structure shown.

What all share (assay type): functional
In assay [1] the test system is Pseudomonas aeruginosa. Kind of assay: Antibacterial activity against Pseudomonas aeruginosa ATCC 27853 at 10 ug/ml after 24 hrs by disc diffusion method. Particulars: ATCC 27853, 24 h, read-out: IZ. A general note: A growth-free zone around the sample is the usual read-out of agar diffusion tests.
The subject of assay [2] is Escherichia coli. Kind of assay: Antibacterial activity against Escherichia coli ATCC 25922 after 24 hrs by disc diffusion method. The following applies: ATCC 25922, 24 h.
Assay [3] has as its system Staphylococcus aureus. Kind of assay: Antibacterial activity against Staphylococcus aureus ATCC 25923 at 10 ug/ml after 24 hrs by disc diffusion method. Particulars: ATCC 25923, 24 h, read-out: IZ.
Assay [4] concerns Klebsiella pneumoniae. Kind of assay: Antibacterial activity against Klebsiella pneumoniae after 24 hrs by disc diffusion method.
The test system of assay [5] is Aspergillus fumigatus. Kind of assay: Antifungal activity against Aspergillus fumigatus NICM902 at 10 ug/ml after 3 to 4 days by serial dilution method. Particulars: read-out: IZ.
In assay [6] the test system is Candida albicans. Kind of assay: Antifungal activity against Candida albicans NICM3100 at 10 ug/ml after 3 to 4 days by serial dilution method. The following applies: read-out: IZ.
Assay [7] concerns Aspergillus fumigatus. Kind of assay: Antifungal activity against Aspergillus fumigatus NICM902 after 3 to 4 days by serial dilution method.
Assay [8] concerns Candida albicans. Kind of assay: Antifungal activity against Candida albicans NICM3100 after 3 to 4 days by serial dilution method.
Assay [9] has as its system Klebsiella pneumoniae. Kind of assay: Antibacterial activity against Klebsiella pneumoniae after 24 hrs at 10 ug/ml by disc diffusion method. Particulars: read-out: IZ.
Assay [10] concerns Talaromyces marneffei. Kind of assay: Antifungal activity against Penicillium marneffei after 3 to 4 days by serial dilution method.
The test system of assay [11] is Talaromyces marneffei. Kind of assay: Antifungal activity against Penicillium marneffei at 10 ug/ml after 3 to 4 days by serial dilution method. Particulars: read-out: IZ.
In assay [12] the test system is Aspergillus flavus. Kind of assay: Antifungal activity against Aspergillus flavus NICM524 at 10 ug/ml after 3 to 4 days by serial dilution method. The following applies: read-out: IZ.
Assay [13] concerns Staphylococcus aureus. Kind of assay: Antibacterial activity against Staphylococcus aureus ATCC 25923 after 24 hrs by disc diffusion method. Particulars: ATCC 25923, 24 h.
For assay [14], the system named is Aspergillus flavus. Kind of assay: Antifungal activity against Aspergillus flavus NICM524 after 3 to 4 days by serial dilution method.
Assay [15] deals with Pseudomonas aeruginosa. Kind of assay: Antibacterial activity against Pseudomonas aeruginosa ATCC 27853 after 24 hrs by disc diffusion method. The following applies: ATCC 27853, 24 h.
Assay [16] deals with Escherichia coli. Kind of assay: Antibacterial activity against Escherichia coli ATCC 25922 after 24 hrs at 10 ug/ml by disc diffusion method. Particulars: ATCC 25922, 24 h, read-out: IZ.

With `CSc1ccc(Cc2nn(CN3CCN(C)CC3)c(=S)n2/N=C/c2ccc(Cl)cc2Cl)cc1`, the zone of inhibition at 10 µg/mL in [1] stood at 25 mm; in assay [3], 19 mm; in assay [5], 22 mm; in assay [6], 20 mm; in [9] it was 20 mm; in assay [11], 18 mm. Moreover, the zone of inhibition at 10 µg/mL in [12] and in [16] was 18 mm throughout. Further, the MIC (as a rule, the least concentration at which growth counts as inhibited) in assay [2] was 12.5 µg/mL (≈ 24 µM); in assay [4], 6 µg/mL (≈ 11.5 µM); in assay [7] it was 6 µg/mL (≈ 11.5 µM); in assay [8], 6 µg/mL (≈ 11.5 µM); in assay [10] it was 6 µg/mL (≈ 11.5 µM); in assay [13], 12.5 µg/mL (≈ 24 µM). In addition, the figures for the MIC in assay [14] and in [15] were 12.5 µg/mL (≈ 24 µM) and 6 µg/mL (≈ 11.5 µM), respectively.
With `CSc1ccc(Cc2nn(CN3CCN(C)CC3)c(=S)n2/N=C/c2ccc3c(c2)OCO3)cc1`, the zone of inhibition at 10 µg/mL in [1] came to 12 mm; in assay [3], 10 mm; in [5] it was 10 mm; in [6] it was 10 mm; in assay [9], 10 mm; in [11], 10 mm. Besides, the zone of inhibition at 10 µg/mL stood at 10 mm in assay [12] and 12 mm in assay [16]. Moreover, the minimal inhibitory concentration (MIC) in assay [2] was determined as 25 µg/mL (≈ 50.3 µM); in assay [4], 12.5 µg/mL (≈ 25.2 µM); in [7], 12.5 µg/mL (≈ 25.2 µM); in [8] it was 12.5 µg/mL (≈ 25.2 µM); in [10], 12.5 µg/mL (≈ 25.2 µM); in [13], 25 µg/mL (≈ 50.3 µM). For the same molecule, the minimum inhibitory concentration (MIC) in assay [14] worked out at 25 µg/mL (≈ 50.3 µM); in [15], 12.5 µg/mL (≈ 25.2 µM).
As to `CSc1ccc(Cc2nn(CN3CCN(C)CC3)c(=S)n2/N=C/c2ccc(C)cc2)cc1`, the zone of inhibition at 10 µg/mL in [1] was 12 mm; in assay [3], 10 mm; in assay [5] it was 10 mm; in assay [6], 12 mm; in assay [9], 10 mm; in assay [11], 11 mm. In addition, the zone of inhibition at 10 µg/mL in [12] and in assay [16] was 12 mm throughout. The minimal inhibitory concentration (MIC) worked out at 25 µg/mL (≈ 53.6 µM) in assay [2]; 12.5 µg/mL (≈ 26.8 µM) in assay [4]; 12.5 µg/mL (≈ 26.8 µM) in [7]; 12.5 µg/mL (≈ 26.8 µM) in assay [8]; 12.5 µg/mL (≈ 26.8 µM) in [10]; 25 µg/mL (≈ 53.6 µM) in assay [13]. The MIC in assay [14] was determined as 25 µg/mL (≈ 53.6 µM); in assay [15] it was 12.5 µg/mL (≈ 26.8 µM).
Consider `CSc1ccc(Cc2nn(CN3CCN(C)CC3)c(=S)n2/N=C/c2ccc(F)cc2)cc1`, for which the zone of inhibition at 10 µg/mL in assay [1] came out at 10 mm; in [3], 12 mm; in assay [5], 12 mm; in assay [6] it was 10 mm; in [9], 10 mm; in assay [11], 10 mm. Moreover, the zone of inhibition at 10 µg/mL stood at 10 mm in assay [12] and 12 mm in assay [16]. Also, the minimum inhibitory concentration (MIC) worked out at 25 µg/mL (≈ 53.1 µM) in assay [2]; 12.5 µg/mL (≈ 26.6 µM) in [4]; 12.5 µg/mL (≈ 26.6 µM) in assay [7]; 12.5 µg/mL (≈ 26.6 µM) in [8]; 12.5 µg/mL (≈ 26.6 µM) in [10]; 25 µg/mL (≈ 53.1 µM) in assay [13]. The minimal inhibitory concentration (MIC) in assay [14] was 25 µg/mL (≈ 53.1 µM); in [15], 12.5 µg/mL (≈ 26.6 µM).
On to `COc1ccc(/C=N/n2c(Cc3ccc(SC)cc3)nn(CN3CCN(C)CC3)c2=S)cc1`, for which the zone of inhibition at 10 µg/mL in assay [1] came to 10 mm; in assay [3], 10 mm; in [5], 12 mm; in assay [6], 10 mm; in assay [9], 10 mm; in [11], 10 mm. The zone of inhibition at 10 µg/mL in assay [12] was found to be 12 mm; in assay [16] it was 10 mm. In addition, the minimal inhibitory concentration (MIC) in assay [2] was 25 µg/mL (≈ 51.8 µM); in [4], 12.5 µg/mL (≈ 25.9 µM); in assay [7] it was 12.5 µg/mL (≈ 25.9 µM); in [8] it was 12.5 µg/mL (≈ 25.9 µM); in [10] it was 12.5 µg/mL (≈ 25.9 µM); in assay [13] it was 25 µg/mL (≈ 51.8 µM). Also, the minimal inhibitory concentration (MIC) in assay [14] was determined as 25 µg/mL (≈ 51.8 µM); in assay [15], 12.5 µg/mL (≈ 25.9 µM).
For `CSc1ccc(/C=N/n2c(Cc3ccc(SC)cc3)nn(CN3CCN(C)CC3)c2=S)cc1`, the zone of inhibition at 10 µg/mL in assay [1] turned out to be 12 mm; in assay [3], 12 mm; in [5], 12 mm; in [6], 10 mm; in assay [9] it was 10 mm; in [11], 12 mm. In addition, the zone of inhibition at 10 µg/mL in assay [12] was 12 mm; in assay [16] it was 10 mm. The MIC in assay [2] is 25 µg/mL (≈ 50.1 µM); in [4] it was 12.5 µg/mL (≈ 25.1 µM); in assay [7] it was 12.5 µg/mL (≈ 25.1 µM); in assay [8] it was 12.5 µg/mL (≈ 25.1 µM); in assay [10], 12.5 µg/mL (≈ 25.1 µM); in assay [13] it was 25 µg/mL (≈ 50.1 µM). Besides, the figures for the MIC in assay [14] and in assay [15] were 25 µg/mL (≈ 50.1 µM) and 12.5 µg/mL (≈ 25.1 µM), respectively.
Turning to `CSc1ccc(/C=N/n2c(Cc3ccc(SC)cc3)nn(CN3CCOCC3)c2=S)cc1`, the zone of inhibition at 10 µg/mL in [1] was determined as 12 mm; in assay [3], 10 mm; in assay [5], 12 mm; in assay [6], 10 mm; in assay [9] it was 12 mm; in assay [11] it was 12 mm. For the same molecule, the zone of inhibition at 10 µg/mL in assay [12] was 10 mm; in assay [16], 12 mm. Besides, the MIC in assay [2] came to 25 µg/mL (≈ 51.5 µM); in assay [4] it was 12.5 µg/mL (≈ 25.7 µM); in assay [7], 12.5 µg/mL (≈ 25.7 µM); in assay [8], 12.5 µg/mL (≈ 25.7 µM); in assay [10], 12.5 µg/mL (≈ 25.7 µM); in [13] it was 25 µg/mL (≈ 51.5 µM). The MIC in [14] is 25 µg/mL (≈ 51.5 µM); in assay [15], 12.5 µg/mL (≈ 25.7 µM).
Turning to `CSc1ccc(Cc2nn(CN3CCN(C)CC3)c(=S)n2/N=C/c2ccc(Cl)cc2)cc1`, the zone of inhibition at 10 µg/mL in assay [1] worked out at 24 mm; in [3], 18 mm; in assay [5], 20 mm; in assay [6], 19 mm; in assay [9] it was 20 mm; in assay [11] it was 20 mm. The zone of inhibition at 10 µg/mL in assay [12] and in [16] was 18 mm in each case. Further, the MIC in assay [2] was 12.5 µg/mL (≈ 25.7 µM); in [4], 6 µg/mL (≈ 12.3 µM); in assay [7] it was 6 µg/mL (≈ 12.3 µM); in [8], 6 µg/mL (≈ 12.3 µM); in assay [10] it was 6 µg/mL (≈ 12.3 µM); in [13] it was 12.5 µg/mL (≈ 25.7 µM). Also, the values for the MIC in assay [14] and in assay [15] were 12.5 µg/mL (≈ 25.7 µM) and 6 µg/mL (≈ 12.3 µM), respectively.
In the case of `Cc1cc(C2CCCCC2)n(O)c(=O)c1.NCCO` [CICLOPIROX OLAMINE], the zone of inhibition at 10 µg/mL in assay [5] is 22 mm; in assay [6], 20 mm; in assay [11], 20 mm; in [12] it was 18 mm. Further, the minimum inhibitory concentration (MIC) in assay [7] amounted to 6 µg/mL; in [8], 6 µg/mL; in [10] it was 6 µg/mL; in [14], 12.5 µg/mL.
Turning to `O=C(O)c1cn(C2CC2)c2cc(N3CCNCC3)c(F)cc2c1=O` [CIPROFLOXACIN], the zone of inhibition at 10 µg/mL in assay [1] turned out to be 25 mm; in assay [3], 19 mm; in assay [5], 22 mm; in assay [6], 20 mm; in [9], 20 mm; in [11], 20 mm. Also, the zone of inhibition at 10 µg/mL in [12] and in assay [16] was 18 mm throughout. For the same molecule, the MIC in [2] came to 12.5 µg/mL (≈ 37.7 µM); in assay [4], 6 µg/mL (≈ 18.1 µM); in [13] it was 12.5 µg/mL (≈ 37.7 µM); in assay [15], 6 µg/mL (≈ 18.1 µM).

(Values after ChEMBL document CHEMBL1147888, “Convenient one pot synthesis and antimicrobial evaluation of some new Mannich bases carrying 4-methylthiobenzyl moiety” (2007).)
